Test system: NCI-H1417 complex spheroids, growth % test/control
Assay: Anticancer human tumor NCI-H1417 cell line growth inhibition [Asc];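 note: spheroids exposed to compounds for 7 days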;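 for viability, T/C: 100% = DMSO vehicle control wells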
Conditions: for IC50: curve of first compound; for viability, T/C: stronger effect = lower value
Procedure, shortened: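 Spheroid model: tumor line + HUVEC + hMSC. Single agents and combinations; top conc. at/near clinical Cmax (10 microM if undetermined), half-log dilutions. DMSO stocks at 800-fold test concentration.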

[1] = second compound 0.01 µM, first compound 0.0316 µM
[2] = second compound 0.01 µM, first compound 0.1 µM
[3] = second compound 0.01 µM, first compound 0.316 µM
[4] = second compound 0.01 µM, first compound 1 µM
[5] = second compound 0.0316 µM, first compound 0.0316 µM
[6] = second compound 0.0316 µM, first compound 0.1 µM
[7] = second compound 0.0316 µM, first compound 0.316 µM
[8] = second compound 0.0316 µM, first compound 1 µM
[9] = second compound 0.1 µM, first compound 0.0316 µM
[10] = second compound 0.1 µM, first compound 0.1 µM
[11] = second compound 0.1 µM, first compound 0.316 µM
[12] = second compound 0.1 µM, first compound 1 µM
[13] = second compound 0.316 µM, first compound 0.0316 µM
[14] = second compound 0.316 µM, first compound 0.1 µM
[15] = second compound 0.316 µM, first compound 0.316 µM
[16] = second compound 0.316 µM, first compound 1 µM
[17] = second compound 1 µM, first compound 0.0316 µM
[18] = second compound 1 µM, first compound 0.1 µM
[19] = second compound 1 µM, first compound 0.316 µM
[20] = second compound 1 µM, first compound 1 µM

| SMILES | IC50 (second compound 0.01 µM) [µM] | IC50 (second compound 0.0316 µM) [µM] | IC50 (second compound 0.1 µM) [µM] | IC50 (second compound 0.316 µM) [µM] | IC50 (second compound 1 µM) [µM] | viability, T/C [1] [%] | viability, T/C [2] [%] | viability, T/C [3] [%] | viability, T/C [4] [%] | viability, T/C [5] [%] | viability, T/C [6] [%] | viability, T/C [7] [%] | viability, T/C [8] [%] | viability, T/C [9] [%] | viability, T/C [10] [%] | viability, T/C [11] [%] | viability, T/C [12] [%] | viability, T/C [13] [%] | viability, T/C [14] [%] | viability, T/C [15] [%] | further results |
| --- | --- | --- | --- | --- | --- | --- | --- | --- | --- | --- | --- | --- | --- | --- | --- | --- | --- | --- | --- | --- | --- |
| O=C(c1ccc(F)c(F)c1Nc1ccc(I)cc1F)N1CC(O)([C@@H]2CCCCN2)C1 + CNC(C)C(=O)NC1CN(S(=O)(=O)c2cccc(S(=O)(=O)N3CCC4CCC(C(=O)NC(c5ccccc5)c5ccccc5)N4C(=O)C(NC(=O)C(C)NC)C3)c2)CCC2CCC(C(=O)NC(c3ccccc3)c3ccccc3)N2C1=O | > 1 | > 1 | > 1 | > 1 | > 1 | 95 | 103 | 99.5 | 85.3 | 92.7 | 102 | 96.7 | 103 | 95.3 | 98.4 | 99.4 | 91.2 | 110 | 90.9 | 105 | viability, T/C (second compound 0.01 µM, first compound 0.00316 µM): 107%; viability, T/C (second compound 0.01 µM, first compound 0.01 µM): 102%; viability, T/C (second compound 0.0316 µM, first compound 0.00316 µM): 107%; viability, T/C (second compound 0.0316 µM, first compound 0.01 µM): 96.6%; viability, T/C (second compound 0.1 µM, first compound 0.00316 µM): 101%; viability, T/C (second compound 0.1 µM, first compound 0.01 µM): 90.8%; viability, T/C (second compound 0.316 µM, first compound 0.00316 µM): 88.6%; viability, T/C (second compound 0.316 µM, first compound 0.01 µM): 104%; viability, T/C [16]: 101%; viability, T/C (second compound 1 µM, first compound 0.00316 µM): 88%; viability, T/C (second compound 1 µM, first compound 0.01 µM): 93.8%; viability, T/C [17]: 82.8%; viability, T/C [18]: 95.8%; viability, T/C [19]: 91.4%; viability, T/C [20]: 102% |
| O=C(c1cc(Cc2n[nH]c(=O)c3ccccc23)ccc1F)N1CCN(C(=O)C2CC2)CC1 + CNC(C)C(=O)NC1CN(S(=O)(=O)c2cccc(S(=O)(=O)N3CCC4CCC(C(=O)NC(c5ccccc5)c5ccccc5)N4C(=O)C(NC(=O)C(C)NC)C3)c2)CCC2CCC(C(=O)NC(c3ccccc3)c3ccccc3)N2C1=O | 5.78 | 6.33 | 4.79 | 5.52 | 5.39 | 101 | 101 | 94.7 | 83.6 | 102 | 87.8 | 88.5 | 100 | 90.3 | 93.5 | 81.8 | 90 | 99.9 | 92.3 | 96.7 | viability, T/C (second compound 0.01 µM, first compound 3.16 µM): 65.6%; viability, T/C (second compound 0.01 µM, first compound 10 µM): 36.1%; viability, T/C (second compound 0.0316 µM, first compound 3.16 µM): 71.5%; viability, T/C (second compound 0.0316 µM, first compound 10 µM): 35.8%; viability, T/C (second compound 0.1 µM, first compound 3.16 µM): 60.7%; viability, T/C (second compound 0.1 µM, first compound 10 µM): 30.9%; viability, T/C [16]: 85.6%; viability, T/C (second compound 0.316 µM, first compound 3.16 µM): 68.8%; viability, T/C (second compound 0.316 µM, first compound 10 µM): 30%; viability, T/C [17]: 97.7%; viability, T/C [18]: 90%; viability, T/C [19]: 91.2%; viability, T/C [20]: 95%; viability, T/C (second compound 1 µM, first compound 3.16 µM): 65.5%; viability, T/C (second compound 1 µM, first compound 10 µM): 32% |

— PubChem BioAssay AID1963440 (Molecular Pharmacology Branch, DTP, NCI, 2024)
